In assay [1] the test system is Tie2 in HUVECs. The assay is described as follows: in vitro Tie2 phosphorylation (immunoprecipitation/immunoblot), HUVEC. In kind it is cell-based, human. The settings on record: Ang1 15–400 ng/mL (0.05–1.43 nM), VT 5–100 ng/mL (0.36–7.1 nM), 10, 15 or 45 min, with or without starvation. An excerpt:
Figure 7 In vitro Vasculotide vs. Ang1 stimulations: effects on Tie2 receptor phosphorylation in primary endothelial cells—HUVECs (A-E) and HMVEC-DBls (F) • A–F Primary human umbilical vein endothelial cells (HUVECs) or primary human dermal microvascular endothelial cells (HMVEC-DBls) were stimulated at 80% confluency with Vasculotide (treatment), Ang1 (positive control; ligand of Tie2), PBS (vehicle control), or VEGF (negative control; non-ligand of Tie2). Tie2 was immunoprecipitated from cell lysates and immunoblotted for total Tie2 or phosphotyrosine. […] Source data are available online for this figure. […]
Nodule areas were then […]
unit converted (to μm2) and normalized to total lung section area (including air spaces) using ROI measurements from ImageJ software (NIH).
7. Histological assessment of primary tumor viability and hypoxia
5-μm thick sections of PFA-fixed paraffin-embedded mammary fat pad tumors were subjected to: (i) standard hematoxylin and eosin (H&E) staining to visualize viable vs. necrotic regions; or (ii) standard IHC staining with a goat anti-human carbonic anhydrase IX (CAIX or CA9) antibody (R&D Systems AF2188, 1:80 dilution) plus hematoxylin counterstain to visualize hypoxic regions. […]
IHC staining for CAIX further marks a hypoxic band at the edge of the viability rim bordering the necrotic core – the thickness of this hypoxic edge was averaged over 12 measurements spaced 30o apart (see Fig. 5E).
8. Western immunoblotting for total or phosphorylated Tie2
Cultured ECs and TCs were lysed in RIPA lysis buffer as previously described (Bogdanovic et al, 2006).
Lung/ liver/ kidney tissues, which had been snap-frozen in liquid nitrogen once harvested from mice, were homogenized in RIPA lysis buffer (50 mM Tris-HCl pH 7.5, 150 mM NaCl, 1% Igepal, 0.5% sodium deoxycholate, 0.1% SDS, 1 mM Na3VO4 and protease inhibitors) at 4 °C. […]
(§1) Semi-quantitative densitometry analysis of immunoblots was performed using the ChemiGenius2 bioimaging system and GeneSnap/GeneTools software (Syngene). […]
On the technique in general: A western blot detects proteins with antibodies after separation by electrophoresis.

The test system of assay [2] is human Tie2-Fc (extracellular domain of Tie2). Put plainly: pull-down assay, human Tie2-Fc. Format: binding. The settings on record: human Tie2-Fc on protein A sepharose; rhAng1 20 ng or VT 100 ng, pH 7.4, 4°C; Fig9A,B.
Excerpt: To better understand the difficulties we had in observing Tie2 activation by VT, we sought to characterize the binding affinity and kinetics of VT to Tie2. Purified human or mouse Tie2-Fc (i.e., Fc-conjugated extracellular domains of Tie2) were first coupled to protein A sepharose beads for pull-down experiments (Fig9A and B) or immobilized on a Biacore CM5 sensor chip for surface plasmon resonance (SPR) experiments (Fig9C and Supplementary Fig S3).
Figure 9 Binding of Vasculotide vs. Ang1 variants to the extracellular domain of Tie2 • A–B Pull-down assay. Input ligands—rhAng1 (A) and VT (B)—were incubated with either protein A sepharose beads only, bead-conjugated mouse Tie2-Fc (mTie2), or bead-conjugated human Tie2-Fc (hTie2). […] The ‘unbound’ fraction is 7% of residual/free ligands remaining in the supernatant. • C Quantitative kinetics analysis by SPR. All analytes were run at increasing concentrations of 0.625, 1.25, 2.5, 5, and 10 nM, at 37°C and pH 7.4. […] Source data are available online for this figure. […]
as §1

The values that follow come from publication PMC4459817, “Vasculotide reduces endothelial permeability and tumor cell extravasation in the absence of binding to or agonistic activation of Tie2” (EMBO Molecular Medicine, 2015).

As to “CHHHRHSF [Vasculotide, 4-armed maleimide-functionalized polyethylene glycol (PEG) backbone to link together four cysteine-capped T7 peptides, that is, CHHHRHSF]”, the Tie2 phosphorylation result in assay [1] is on record as “did not lead to increases in the pTie2/Tie2 ratio”; in assay [1] (listed as VT), “did not lead to any appreciable induction of Tie2 phosphorylation”. Further, the “pull-down by Tie2-Fc” value in assay [2] is recorded as “did not pull down any appreciable levels”.

B1: recombinant human Ang1 (rhAng1) (ligand, UniProt Q15389 16-498, looked up)
chain: HIGCSNQRRSPENSGRRYNRIQHGQCAYTFILPEHDGNCRESTTDQYNTNALQRDAPHVEPDFSSQKLQHLEHVMENYTQWLQKLENYIVENMKSEMAQIQQNAVQNHTATMLEIGTSLLSQTAEQTRKLTDVETQVLNQTSRLEIQLLENSLSTYKLEKQLLQQTNEILKIHEKNSLLEHKILEMEGKHKEELDTLKEEKENLQGLVTRQTYIIQELEKQLNRATTNNSVLQKQQLELMDTVHNLVNLCTKEGVLLKGGKREEEKPFRDCADVYQAGFNKSGIYTIYINNMPEPKKVFCNMDVNGGGWTVIQHREDGSLDFQRGWKEYKMGFGNPSGEYWLGNEFIFAITSQRQYMLRIELMDWEGNRAYSQYDRFHIGNEKQNYRLYLKGHTGTAGKQSSLILHGADFSTKDADNDNCMCKCALMLTGGWWFDACGPSNLNGMFYTAGQNHGKLNGIKWHYFKGPSYSLRSTTMMIRPLDF
notes: angiopoietin-1, human, recombinant; also called angiopoietin-1; source: bought: R&D Systems (named for the Boyden chamber experiments)
Turning to B1, the Tie2 phosphorylation result in assay [1] was “strongly and consistently activated Tie2 phosphorylation”. Further, the “pull-down by Tie2-Fc” value in assay [2] was “effectively pulled down the majority”.
